Tests used:
5637 (Bladder Carcinoma) [1] = assay: Bliss excess, mean over the matrix (fraction); higher = more synergy
Summary of the method: (§1)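 Cell lines grown in DMEM/F12 or RPMI with 10% FBS were plated in 1536-well plates and held 24 hours at 37°C, 5% CO2 before 72 hours of exposure to two-drug dose matrices, with DMSO typically at 0.2%. CellTiter-Glo 2.0 luminescence gave viability, which was converted to inhibition. Vehicle wells were set to 0 and blank wells to 1. Combination Emax is the second-highest inhibition in the matrix, and Bliss excess is the observed combination effect minus the expected EA + EB − EA·EB, where EA and EB are the single-agent effects.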

EW-16 (Ewing's Sarcoma) = assay: as above
Summary of the method: as §1

[2] = system: GA-10 (Burkitt's Lymphoma); assay: as above
Summary of the method: as §1

[3] = system: JIMT-1 (Breast Carcinoma); assay: as above
Summary of the method: as §1

[4] = system: KYSE-140 (Esophageal Squamous Cell Carcinoma); assay: as above
Summary of the method: as §1

[5] = system: 22RV1 (Prostate Carcinoma); assay: combination Emax (second highest fraction inhibited in the dose matrix, 72 h); higher = more inhibition; extreme values may be limits of the assay
Summary of the method: as §1

5637 (Bladder Carcinoma) [6] = assay: as above
Summary of the method: as §1

A204 (Rhabdomyosarcoma) = assay: as above
Summary of the method: as §1

[7] = system: ESO26 (Esophageal Adenocarcinoma); assay: as above
Summary of the method: as §1

EW-7 (Ewing's Sarcoma) = assay: as above
Summary of the method: as §1

[8] = system: G-402 (Other Solid Carcinomas); assay: as above
Summary of the method: as §1

HCC70 (Breast Carcinoma) = assay: as above
Summary of the method: as §1

[9] = system: HT55 (Colorectal Carcinoma); assay: as above
Summary of the method: as §1

[10] = system: JHH-2 (Hepatocellular Carcinoma); assay: as above
Summary of the method: as §1

[11] = system: JHU-022 (Oral Cavity Carcinoma); assay: as above
Summary of the method: as §1

[12] = system: LS-411N (Colorectal Carcinoma); assay: as above
Summary of the method: as §1

[13] = system: MDA-MB-436 (Breast Carcinoma); assay: as above
Summary of the method: as §1

NB13 (Neuroblastoma) = assay: as above
Summary of the method: as §1

[14] = system: OACp4C (Esophageal Adenocarcinoma); assay: as above
Summary of the method: as §1

[15] = system: huH-1 (Hepatocellular Carcinoma); assay: as above
Summary of the method: as §1
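For Bliss excess, mean over the matrix in this document: after 72 h of two-drug dosing.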

SMILES	Bliss excess (5637 (Bladder Carcinoma) [1])	Bliss excess (EW-16 (Ewing's Sarcoma))	Bliss excess [2]	Bliss excess [3]	Bliss excess [4]	combination Emax [5]	combination Emax (5637 (Bladder Carcinoma) [6])	combination Emax (A204 (Rhabdomyosarcoma))	combination Emax [7]	combination Emax (EW-7 (Ewing's Sarcoma))	combination Emax [8]	combination Emax (HCC70 (Breast Carcinoma))	combination Emax [9]	combination Emax [10]	combination Emax [11]	combination Emax [12]	combination Emax [13]	combination Emax (NB13 (Neuroblastoma))	combination Emax [14]	combination Emax [15]
Cc1c2c(nn1C)CSCc1cc(n(C)n1)CSc1cc(c3ccccc3c1)OCCCc1c(C(=O)O)n(C)c3c-2c(Cl)ccc13 [AZD5991] + C=CCn1c(=O)c2cnc(Nc3ccc(N4CCN(C)CC4)cc3)nc2n1-c1cccc(C(C)(C)O)n1 [AZD1775] (first compound max 1 µM, partner max 1 µM)	-0.0352	-0.0392	-0.053	0.0464	0.0145	0.453	0.954	0.829	0.683	0.919	0.965	0.951	0.715	0.58	0.451	0.741	0.289	0.902	0.951	0.552
CN(CCO)CC[C@H](CSc1ccccc1)Nc1ccc(S(=O)(=O)NC(=O)c2ccc(N3CCC([C@@H](O)c4ccccc4-c4ccc(Cl)cc4)CC3)cc2)cc1S(=O)(=O)C(F)(F)F [AZD4320] + CN(C)CCCOc1ccc(-c2ccc3ncc4c(c3c2)n(C2CCOCC2)c(=O)n4C)cn1 [AZD0156] (first compound max 1 µM, 7x7, partner max 1 µM)	-0.0311	-0.003	0.0026	-0.0344	-0.0257	0.385	0.222	0.223	0.153	0.68	0.401	0.281	0.161	0.194	0.102	0.199	0.133	1	0.851	0.122
C[C@@H]1COCCN1c1cc(C2([S@](C)(=N)=O)CC2)nc(-c2ccnc3[nH]ccc23)n1 [AZD6738] + O=C(c1cc(Cc2n[nH]c(=O)c3ccccc23)ccc1F)N1CCN(C(=O)C2CC2)CC1 [Olaparib] (first compound max 10 µM, 7x7, partner max 10 µM)	-0.0011	0.0402	-0.0726	-0.0247	-0.0971	0.631	0.726	0.417	0.319	0.929	0.627	0.722	0.446	0.674	0.563	0.383	0.349	0.947	0.71	0.685
Cn1cnc2c(F)c(Nc3ccc(Br)cc3Cl)c(C(=O)NOCCO)cc21 [Selumetinib] + CCN(CCO)CCCOc1ccc2c(Nc3cc(CC(=O)Nc4cccc(F)c4)[nH]n3)ncnc2c1 [AZD2811] (first compound max 10 µM, 7x7, partner max 1 µM)	0.0276	-0.0221	-0.0559	-0.0403	-0.0554	0.383	0.81	0.286	0.212	0.509	0.578	0.603	0.741	0.325	0.54	0.786	0.264	0.367	0.838	0.307
COc1nnc2ccc(N3CCC(c4ccc(OCCN5CCN(C)C(=O)[C@H]5C)cc4)CC3)nn12 [AZD5153] + Cc1c2c(nn1C)CSCc1cc(n(C)n1)CSc1cc(c3ccccc3c1)OCCCc1c(C(=O)O)n(C)c3c-2c(Cl)ccc13 [AZD5991] (first compound max 1 µM, 7x7, partner max 1 µM)	-0.0555	-0.0412	-0.0598	0.0155	-0.124	0.857	0.637	0.73	0.778	0.759	0.987	0.96	0.61	0.343	0.417	0.917	0.293	0.907	0.789	0.435
CC1(C)CCC(CN2CCN(c3ccc(C(=O)NS(=O)(=O)c4ccc(NCC5CCOCC5)c([N+](=O)[O-])c4)c(Oc4cnc5[nH]ccc5c4)c3)CC2)=C(c2ccc(Cl)cc2)C1 [Venetoclax] + CCN(CCO)CCCOc1ccc2c(Nc3cc(CC(=O)Nc4cccc(F)c4)[nH]n3)ncnc2c1 [AZD2811] (first compound max 1 µM, 7x7, partner max 1 µM)	-0.0229	0.0619	0.0033	-0.0232	-0.0045	0.232	0.607	0.368	0.126	0.887	0.667	0.616	0.235	0.27	0.292	0.0756	0.127	0.548	0.665	0.191

— the supplement of paper PMC11061612
